From US20090069623A1, “METHODS AND COMPOSITIONS FOR TREATMENT OR PREVENTION OF RADIATION-INDUCED FIBROSIS” (Virginia Commonwealth University Intellectual Property …, priority 2007, published 2009)

Tests used:
[1] = system: CTGF, fibronectin (FN), collagen type IV (Col IV) mRNA; assay: RT-PCR of mRNA expression in irradiated HFL-1 cells treated with simvastatin; type: cell-based, human; settings: simvastatin pretreatment 6 hours, 10 Gy, 20 hours, FIG. 8A
Protocol: For statin treatment experiments, cells were grown overnight in 35 mm plates (6-well plates were also used in some studies) to form a 75-80% confluent monolayer. The cells were then washed with PBS, and the media was changed to SFM (800 μL).
RT-PCR analysis of CTGF, COL-IV, FN and hβ2M. […] One microgram of purified total RNA was used for RT-PCR analysis using the ThermoScript RT-PCR System (Invitrogen, Inc.) according to the protocol of the manufacturer. The sequences of the forward and reverse primers are as follows: CTGF forward primer (SEQ ID NO 1) 5′-[…]-3′, CTGF reverse primer (SEQ ID NO 2) 5′-[…]-3′; COL-IV forward primer (SEQ ID NO 3) 5′-[…]-3′, COL-IV reverse primer (SEQ ID NO 4) 5′-[…]-3′; FN forward primer (SEQ ID NO 5) 5′-[…]-3′, FN reverse primer (SEQ ID NO 6) 5′-[…]-3′; hβ2M forward primer (SEQ ID NO 7) 5′-[…]-3′; hβ2M reverse primer (SEQ ID NO 8) 5′-[…]-3′. The CTGF PCR product is 242 bp in length, the COL-IV PCR product is 138 bp, the FN PCR product is 203 bp, and hβ2M PCR product is 278 bp. For PCR amplification, 25 cycles were performed for the amplification of CTGF, COL-IV, FN and hβ2M (denaturation: 94° C., 45 sec; annealing: 55° C., 45 sec; polymerization: 72° C., 1 min). Amplified products were separated by electrophoresis on a 1.0% agarose gel, and DNA was visualized by ethidium bromide staining.

[2] = system: CTGF, fibronectin (FN), collagen type IV (Col IV) mRNA; assay: RT-PCR of TGF-β1-induced mRNA expression in HFL-1 cells treated with simvastatin; type: cell-based, human; settings: 10 ng/ml TGF-β1 for 20 hours, FIG. 7A
Protocol: Cell Culture and Treatment. Normal human fetal lung fibroblasts (HFL-1) were purchased from the American Type Culture Collection (ATCC Number: CCL-153) and cultured in Ham's F12K medium (American Type Culture Collection) supplemented with 2 mM L-glutamine adjusted to contain 1.5 g/L sodium bicarbonate and 10% fetal bovine serum. Cells were maintained in humidified 5% CO2 at 37° C. Human dermal fibroblasts (HDF), derived from the dermis of normal human adult skin, were purchased from Invitrogen, Inc. and cultured in Medium-106 (Invitrogen, Inc., Catalogue No. M-106-500) containing LSGS Kit (Invitrogen, Inc., Catalogue No. […]) prior to use. After reaching 75-80% confluence, the medium was changed to serum free medium (SFM) for irradiation with different dose 1Gy, 2.5Gy, 5Gy, 7.5Gy and 10 Gy by using ^137Se. Alternatively, cells were treated with 5 ng/ml TGF-β1 (Sigma-Aldrich, Inc., Catalogue No. T7039) to stimulate CTGF production. The cells were then kept for 3 days in humidified 5% CO2 at 37° C. and subjected to Western immunoblot.^1 ^1What are the culture conditions (e.g., media) for M12 cells used in FIG. 3? RT-PCR analysis of CTGF, COL-IV, FN and hβ2M. […] The ability of statins to inhibit TGF-β1-mediated induction of CTGF, fibronectin, and collagen type IV was assessed in HFL-1 cells. […]

CCC(C)(C)C(=O)O[C@H]1C[C@@H](C)C=C2C=C[C@H](C)[C@H](CC[C@@H]3C[C@@H](O)CC(=O)O3)[C@H]21 [simvastatin, 2,2-dimethyl-butanoic acid(1S,3R,7S,8S,8aR)-1,2,3,7,8,8a-hexahydro-3,7-dimethyl-8-[2-[(2R,4R)-tetrahydro-4-hydroxy-6-oxo-2H-pyran-2-yl]ethyl]-1-naphthalenylester]
expression of CTGF, FN, and Col-IV mRNA [1]: decrease in the expression of CTGF, FN, and Col-IV mRNA
CTGF, FN, and Col IV mRNA expression ([2]; 0.1 μM simvastatin): reduction in CTGF, FN, and Col IV mRNA expression
CTGF, FN, and Col IV mRNA expression ([2]; increasing concentration of simvastatin): reduction in CTGF, FN, and Col IV mRNA expression became more pronounced
